Measured values published in ChEMBL document CHEMBL1177659, “Structure-based virtual screening, synthesis and SAR of novel inhibitors of hepatitis C virus NS5B polymerase” (Bioorg Med Chem, 2010).

System: not listed separately
Assay: Inhibition of His-tagged recombinant NS5B Cdelta 21 polymerase expressed in Escherichia coli DH5alpha by standard primer dependent elongation assay
Parameters: species or system Hepacivirus hominis

SMILES | IC50
O=C1/C(=C/c2ccc(Cl)cc2Cl)SC(=S)N1CCS(=O)(=O)O | 23.5 µM
O=C(O)CN1C(=O)/C(=C/c2cccc(Oc3ccccc3)c2)SC1=S | 7.7 µM
O=C(O)CN1C(=O)/C(=C/c2cccc(C(F)(F)F)c2)SC1=S | 50.9 µM
CC(C)C(C(=O)O)N1C(=O)/C(=C/c2cccc3ccccc23)SC1=S (centres undefined) | 16.9 µM
O=C(O)CN1C(=O)/C(=C/c2ccc(F)cc2)SC1=S | 42.1 µM
O=C(O)CN1C(=O)/C(=C/c2cccc3ccccc23)SC1=S | 61.4 µM
CC(C(=O)O)N1C(=O)/C(=C/c2ccc(Cl)cc2Cl)SC1=S (centres undefined) | 13.3 µM
CC(C)C(C(=O)O)N1C(=O)/C(=C/c2ccccc2Cl)SC1=S (centres undefined) | 36.1 µM
O=C(O)c1ccc2c(c1)C(=O)N(c1cccc(O)c1)C2=O | 200 µM
CC(C)C(C(=O)O)N1C(=O)/C(=C/c2ccc(F)cc2)SC1=S (centres undefined) | 42.9 µM
CC(C(=O)O)N1C(=O)/C(=C/c2cccc3ccccc23)SC1=S (centres undefined) | 68.1 µM
O=C(O)CN1C(=O)/C(=C/c2cccc(Br)c2)SC1=S | 20.2 µM
O=C(O)C(Cc1ccccc1)N1C(=O)/C(=C/c2ccc(Cl)cc2Cl)SC1=S (centres undefined) | 10.6 µM
O=C1/C(=C/c2ccc(Cl)c(Cl)c2)SC(=S)N1NS(=O)(=O)c1ccccc1 | 0.2 µM
CC(C)CC(C(=O)O)N1C(=O)/C(=C/c2ccc(Cl)cc2Cl)SC1=S (centres undefined) | 18.9 µM
O=c1oc2ccccc2c2c1ncn2-c1ccccc1 | 60.2 µM
O=C(O)CN1C(=O)/C(=C/c2ccccc2[N+](=O)[O-])SC1=S | 16.2 µM
O=C(O)CN1C(=O)/C(=C/c2ccc([N+](=O)[O-])cc2)SC1=S | 21.9 µM
O=C(O)CN1C(=O)/C(=C/c2ccc(C(F)(F)F)cc2)SC1=S | 55.2 µM
O=C(O)CN1C(=O)/C(=C/c2ccc(Cl)cc2Cl)SC1=S | 17.9 µM
CSCCC(C(=O)O)N1C(=O)/C(=C/c2ccc(Cl)cc2Cl)SC1=S (centres undefined) | 29.2 µM
CCCC(C(=O)O)N1C(=O)/C(=C/c2ccc(Cl)cc2Cl)SC1=S (centres undefined) | 28.2 µM
O=C(O)CN1C(=O)/C(=C/c2cccc(Cl)c2)SC1=S | 18.4 µM
O=C(O)CCCN1C(=O)/C(=C/c2ccc(Cl)cc2Cl)SC1=S | 58 µM
O=C(O)CCN1C(=O)/C(=C/c2ccc(Cl)cc2Cl)SC1=S | 19.9 µM
O=C(O)CN1C(=O)/C(=C/c2ccc(Cl)c(Cl)c2)SC1=S | 8.4 µM
CC(C)C(C(=O)O)N1C(=O)/C(=C/c2ccc(Cl)cc2Cl)SC1=S (centres undefined) | 14.1 µM
CCc1ccc(/C=C2\SC(N[C@@H](C(=O)O)c3ccc(F)cc3)=NC2=O)o1 (stereo in doubt) [VALEANT] | 3 µM
N#Cc1nc(-c2ccccc2)c(-c2ccccc2)nc1C#N | 250 µM
O=C(O)CCCCCN1C(=O)/C(=C/c2ccc(Cl)cc2Cl)SC1=S | 16.1 µM

System: Hepacivirus hominis
Assay: Inhibition of His-tagged recombinant NS5B Cdelta 21 polymerase expressed in Escherichia coli DH5alpha at 250 uM by standard primer dependent elongation assay relative to control

SMILES | inhibition
O=C(O)c1ccc2c(c1)C(=O)N(c1cccc(O)c1)C2=O | 55%
O=c1oc2ccccc2c2c1ncn2-c1ccccc1 | 62.5%
O=C(O)CN1C(=O)/C(=C/c2ccc(C(F)(F)F)cc2)SC1=S | 71%
N#Cc1nc(-c2ccccc2)c(-c2ccccc2)nc1C#N | 48.6%
